In US9770349B2, “Nanoporous stents with enhanced cellular adhesion and reduced neointimal formation” (University of Virginia Patent Foundation, priority 2002, dated 2017):
In brackets after ≈: the same amount, converted by molar mass.

Assay: Rapamycin solubility in solvent
Type: physicochemical
Details: 100% ethanol, organic solvent or mixture, in ethanol (100% ethanol)

solubility: ~90 mg/mL (≈ 98.4 mM)
SMILES: CO[C@H]1C[C@@H]2CC[C@@H](C)[C@@](O)(O2)C(=O)C(=O)N2CCCC[C@H]2C(=O)O[C@H]([C@H](C)C[C@@H]2CC[C@@H](O)[C@H](OC)C2)CC(=O)[C@H](C)/C=C(\C)[C@@H](O)[C@@H](OC)C(=O)[C@H](C)C[C@H](C)/C=C/C=C/C=C/1C [rapamycin]
